Two compounds from EP0195116A2, “Compound having antibacterial and antimycotic activities, preparation thereof and pharmaceutical compositions containing it” (ISTITUTO FARMACO BIOLOGICO RIPARI GERO S.r.l., priority 1985, dated 1986) can be followed below.

Converted amounts (≈) assume the structure as drawn. Where only a bound is given, the exact number is not on record here.

Data set [1] concerns Tricophyton mentagrophites 1. Kind of data set: In vitro antimycotic activity (M.I.C.), scalar dilutions in liquid medium on Microtiter plates. The format is cell-based. As for the experimental part: (§1) The method is that of scalar dilutions of the test compounds on Microtiter plates, in a 1:2 dilution ratio. Suspensions (titre: 10^4) of fungal sporae and Candida cells, grown on Sabouraud, and Dextrose Agar, were collected at the moment of use in the same medium used for the test and inoculated by means of a multi inoculation Microtiter device.
(§2) M.I.C. values were determined by means of visual observation of fungal growth respectively after 24 hours (Candida albicans) and 48 and 72 hours (dermatophytes) incubation at 24°C.

In another data set the test system is Candida albicans 2. The description is as above. The format is cell-based. How it is done: as §1, §2
For the next data set, the system named is Microsporum canis 2. Described as above. The format is cell-based. The note with it: hospital isolate, 48 and 72 hours incubation at 24°C. As for the experimental part:
as §1, §2

The test system of another data set is Candida albicans 1. The data set is described as above. The data set is classed as cell-based. How it is done:
as §1, §2

In data set [2] the test system is Epidermophyton floccosum 1. The data set is described as above. The format is cell-based. How it is done: as §1, §2
The next data set has as its system Aspergillus fumigatus 2. Described as above. The format is cell-based. How it is done: as §1, §2
In the next data set the test system is Aspergillus fumigatus 1. The data set is described as above. The format is cell-based. How it is done:
as §1, §2

The next data set relates to Microsporum canis 1. The data set is described as above. The data set is classed as cell-based. How it is done: as §1, §2
A further data set has as its system Candida albicans 3. The description is as above. The data set is classed as cell-based. How it is done:
as §1, §2

The subject of data set [3] is Klebsiella pneumoniae ATCC 1003. Kind of data set: In vitro antibacterial activity (M.I.C.), scalar dilutions on agar plates. The data set is classed as cell-based. As for the experimental part: (§3) The method was that of scalar dilutions of the test products on agar plates, in a 1:2 dilution ratio. Bacterial suspensions grown overnight in Brain Heart Infusion DIFCO, were diluted 1/100 in new culture medium and inoculated by means of a multiinoculation device.
(§4) M.I.C. values were determined by visual observation of bacterial growth, after 18 hours incubation, at 37°C.

The test system of a further data set is Streptococcus pyogenes C. The description is as above. The format is cell-based. As for the experimental part: as §3, §4
The next data set relates to Escherichia coli OMI 16. Described as above. The data set is classed as cell-based. The note with it: 18 hours incubation at 37°C. As for the experimental part:
as §3, §4

A further data set deals with Proteus vulgaris OMI 4. The data set is described as above. The data set is classed as cell-based. The note with it: 18 hours incubation at 37°C. As for the experimental part:
as §3, §4

For the next data set, the system named is Escherichia coli OMI 17. The data set is described as above. The format is cell-based. The note with it: 18 hours incubation at 37°C. As for the experimental part: as §3, §4
Data set [4] has as its system Streptococcus faecalis OMI 1. Described as above. The format is cell-based. The note with it: 18 hours incubation at 37°C. How it is done: as §3, §4
The subject of data set [5] is Staphylococcus aureus ATCC 9144. The description is as above. The data set is classed as cell-based. As for the experimental part: as §3, §4
A further data set concerns Staphylococcus aureus 35. Described as above. The format is cell-based. As for the experimental part:
as §3, §4

Data set [6] deals with Streptococcus faecalis OMI 2. The description is as above. The data set is classed as cell-based. The note with it: 18 hours incubation at 37°C. As for the experimental part:
as §3, §4

Data set [7] deals with Pseudomonas aeruginosa OMI 1. The description is as above. The data set is classed as cell-based. The note with it: 18 hours incubation at 37°C. How it is done: as §3, §4
In another data set the test system is Sarcina lutea ATCC 9341. Described as above. The note with it: 18 hours incubation at 37°C. The format is cell-based. As for the experimental part:
as §3, §4

Data set [8] relates to Streptococcus pyogenes A/1. The data set is described as above. The data set is classed as cell-based. How it is done: as §3, §4
Another data set relates to Staphylococcus aureus 38. Described as above. The format is cell-based. As for the experimental part: as §3, §4
The nature of data set [9]: Pharmacokinetics in the rat by oral administration (serum and urinary concentrations by agar-well diffusion bioassay).

As for “1-{[2-(2,4-dichlorophenyl)-2-(2,4-dichlorophenyl)methoxy]ethyl}-1-pivaloyloxymethyl-lH-imidazolium chloride [RG 024]”, the M.I.C. in [1] (Tricophyton mentagrophites 1, hospital isolate, liquid medium, 48 and 72 hours incubation at 24°C) was 0.78 µg/mL; in the data set with Candida albicans 2 (Candida albicans 2, hospital isolate, liquid medium, 24 hours incubation at 24°C), 0.39 µg/mL; in the data set with Microsporum canis 2 it was 6.12 µg/mL; with Candida albicans 1 (Candida albicans 1, hospital isolate, liquid medium, 24 hours incubation at 24°C) it was 1.56 µg/mL; in data set [2] (Epidermophyton floccosum 1, hospital isolate, liquid medium, 48 and 72 hours incubation at 24°C), 1.56 µg/mL; in the data set with Aspergillus fumigatus 2 (Aspergillus fumigatus 2, hospital isolate, liquid medium, incubation at 24°C), 3.12 µg/mL. Besides, the M.I.C. stood at 6.25 µg/mL with Aspergillus fumigatus 1 (Aspergillus fumigatus 1, hospital isolate, liquid medium, incubation at 24°C); 12.5 µg/mL with Microsporum canis 1 (Microsporum canis 1, hospital isolate, liquid medium, 48 and 72 hours incubation at 24°C); 0.78 µg/mL in the data set with Candida albicans 3 (Candida albicans 3, hospital isolate, liquid medium, 24 hours incubation at 24°C); 12.5 µg/mL in [3] (Klebsiella pneumoniae ATCC 1003, Isosensitest agar, 18 hours incubation at 37°C); 0.39 µg/mL in the data set on Streptococcus pyogenes C (Streptococcus pyogenes C, Isosensitest agar, 18 hours incubation at 37°C); 6.25 µg/mL with Escherichia coli OMI 16 (Isosensitest agar). Further, the M.I.C. in the data set on Proteus vulgaris OMI 4 (Isosensitest agar) was 50 µg/mL; in the data set with Escherichia coli OMI 17 (Isosensitest agar) it was 6.25 µg/mL; in data set [4] (Isosensitest agar), 6.25 µg/mL; in [5] (Staphylococcus aureus ATCC 9144, Isosensitest agar, 18 hours incubation at 37°C), 0.19 µg/mL; in the data set with Staphylococcus aureus 35 (Staphylococcus aureus 35, Isosensitest agar, 18 hours incubation at 37°C) it was 0.39 µg/mL; in [6] (Isosensitest agar) it was 6.25 µg/mL. The M.I.C. in [7] (Isosensitest agar) was over 200 µg/mL; with Sarcina lutea ATCC 9341 (Isosensitest agar), 0.19 µg/mL; in data set [8] (Streptococcus pyogenes A/1, Isosensitest agar, 18 hours incubation at 37°C), 0.19 µg/mL; in the data set on Staphylococcus aureus 38 (Staphylococcus aureus 38, Isosensitest agar, 18 hours incubation at 37°C), 0.19 µg/mL.
In the case of `Clc1ccc(COC(Cn2ccnc2)c2ccc(Cl)cc2Cl)c(Cl)c1` (stereo not drawn) [miconazole], in data set [9], the “presence / detectability of the compound over time” value was “may not be detected in significant amounts after the 6 ^th hour”. The MIC is 1.56 µg/mL (≈ 3.75 µM) in data set [1]; 1.56 µg/mL (≈ 3.75 µM) against Candida albicans 2 (Candida albicans, 2, 24 h); 6.12 µg/mL (≈ 14.7 µM) with Microsporum canis 2; 3.12 µg/mL (≈ 7.5 µM) with Candida albicans 1 (Candida albicans, 1, 24 h); 1.56 µg/mL (≈ 3.75 µM) in data set [2] (Epidermophyton floccosum, 1); 6.25 µg/mL (≈ 15 µM) in the data set on Aspergillus fumigatus 2 (Aspergillus fumigatus, 2). The MIC is 6.25 µg/mL (≈ 15 µM) against Aspergillus fumigatus 1 (Aspergillus fumigatus, 1); 12.5 µg/mL (≈ 30 µM) in the data set with Microsporum canis 1 (Microsporum canis, 1); 1.56 µg/mL (≈ 3.75 µM) with Candida albicans 3 (Candida albicans, 3, 24 h); 25 µg/mL (≈ 60.1 µM) in data set [3] (Klebsiella pneumoniae, ATCC1003, 18 h); 0.39 µg/mL (≈ 0.937 µM) with Streptococcus pyogenes C (Streptococcus pyogenes, 18 h); 25 µg/mL (≈ 60.1 µM) against Escherichia coli OMI 16 (OMI16, Isosensitest agar). The minimal inhibitory concentration (MIC) was found to be 100 µg/mL (≈ 240 µM) against Proteus vulgaris OMI 4 (OMI4, Isosensitest agar); 12.5 µg/mL (≈ 30 µM) with Escherichia coli OMI 17 (OMI17, Isosensitest agar); 12.5 µg/mL (≈ 30 µM) in [4] (Enterococcus faecalis, OMI1, Isosensitest agar); 0.39 µg/mL (≈ 0.937 µM) in data set [5] (Staphylococcus aureus, ATCC9144, 18 h); 6.25 µg/mL (≈ 15 µM) in the data set with Staphylococcus aureus 35 (Staphylococcus aureus, 35, 18 h); 6.25 µg/mL (≈ 15 µM) in data set [6] (Enterococcus faecalis, OMI2, Isosensitest agar). In addition, the MIC in data set [7] (OMI1, Isosensitest agar) was over 200 µg/mL; in the data set on Sarcina lutea ATCC 9341 (Micrococcus luteus, ATCC9341, Isosensitest agar) it was 0.19 µg/mL (≈ 0.457 µM); in data set [8] (Streptococcus pyogenes, 18 h) it was 0.39 µg/mL (≈ 0.937 µM); in the data set with Staphylococcus aureus 38 (Staphylococcus aureus, 38, 18 h), 0.39 µg/mL (≈ 0.937 µM).
